For assay [1], the target named is T1, Protein kinase C zeta type (Homo sapiens) (UniProt Q05513).
T1 sequence (whole entry): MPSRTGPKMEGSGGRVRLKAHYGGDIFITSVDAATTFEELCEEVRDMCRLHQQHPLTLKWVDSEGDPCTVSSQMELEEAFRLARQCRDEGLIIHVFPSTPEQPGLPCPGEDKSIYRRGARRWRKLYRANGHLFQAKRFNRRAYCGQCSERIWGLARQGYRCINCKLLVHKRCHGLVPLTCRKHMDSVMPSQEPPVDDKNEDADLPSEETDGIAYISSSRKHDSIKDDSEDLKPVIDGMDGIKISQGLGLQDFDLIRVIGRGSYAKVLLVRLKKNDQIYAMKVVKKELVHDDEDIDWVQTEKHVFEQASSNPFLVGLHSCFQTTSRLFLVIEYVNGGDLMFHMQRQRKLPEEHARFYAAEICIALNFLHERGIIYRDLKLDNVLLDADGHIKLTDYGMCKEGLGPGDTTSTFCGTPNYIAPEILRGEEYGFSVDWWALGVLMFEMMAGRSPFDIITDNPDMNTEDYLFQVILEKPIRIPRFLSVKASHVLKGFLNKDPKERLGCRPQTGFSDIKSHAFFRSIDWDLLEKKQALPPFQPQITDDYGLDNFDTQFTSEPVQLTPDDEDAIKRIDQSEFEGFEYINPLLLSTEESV
In words: Inhibition of human full length PKC zeta expressed in baculovirus assessed as substrate phosphorylation using fluorescence-labelled peptides as substrate at 2 uM after 90 mins by microfluidic peptide phosphorylation assay.

Assay [2] has as its target Protein kinase C eta type (Homo sapiens) (UniProt P24723). In words: Inhibition of human truncated PKC eta expressed in baculovirus assessed as substrate phosphorylation using fluorescence-labelled peptides as substrate at 0.06 uM after 90 mins by microfluidic peptide phosphorylation assay.
The subject of assay [3] is Tyrosine-protein kinase ABL1 (Homo sapiens), P00519 [H396P]. In words: Inhibition of human truncated ABL H396P mutant expressed in baculovirus assessed as substrate phosphorylation using fluorescence-labelled peptides as substrate at 9 uM after 90 mins by microfluidic peptide phosphorylation assay.
The target in assay [4] is T2, Mitogen-activated protein kinase 12 (Homo sapiens) (UniProt P53778).
T2 sequence (whole entry): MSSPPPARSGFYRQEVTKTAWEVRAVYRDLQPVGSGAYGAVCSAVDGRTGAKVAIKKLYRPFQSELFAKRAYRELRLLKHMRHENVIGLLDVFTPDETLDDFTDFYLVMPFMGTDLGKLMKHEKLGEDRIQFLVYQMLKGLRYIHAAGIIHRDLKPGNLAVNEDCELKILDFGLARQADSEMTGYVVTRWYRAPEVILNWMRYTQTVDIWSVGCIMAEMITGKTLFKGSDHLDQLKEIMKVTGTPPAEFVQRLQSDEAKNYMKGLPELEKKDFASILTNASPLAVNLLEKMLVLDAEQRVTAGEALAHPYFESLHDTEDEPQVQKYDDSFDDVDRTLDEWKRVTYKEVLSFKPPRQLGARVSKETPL
In words: Inhibition of human full length p38 gamma expressed in Escherichia coli cell assessed as substrate phosphorylation using fluorescence-labelled peptides as substrate at 9 uM after 90 mins by microfluidic peptide phosphorylation assay.

The target in assay [5] is MAP kinase-activated protein kinase 3 (Homo sapiens) (UniProt Q16644). In words: Inhibition of human full length MAPKAPK3 expressed in Escherichia coli cell assessed as substrate phosphorylation using fluorescence-labelled peptides as substrate at 95 uM after 90 mins by microfluidic peptide phosphorylation assay.
Chain of MAP kinase-activated protein kinase 3 (Homo sapiens) (Q16644 whole entry, looked up, the tested form may be a part): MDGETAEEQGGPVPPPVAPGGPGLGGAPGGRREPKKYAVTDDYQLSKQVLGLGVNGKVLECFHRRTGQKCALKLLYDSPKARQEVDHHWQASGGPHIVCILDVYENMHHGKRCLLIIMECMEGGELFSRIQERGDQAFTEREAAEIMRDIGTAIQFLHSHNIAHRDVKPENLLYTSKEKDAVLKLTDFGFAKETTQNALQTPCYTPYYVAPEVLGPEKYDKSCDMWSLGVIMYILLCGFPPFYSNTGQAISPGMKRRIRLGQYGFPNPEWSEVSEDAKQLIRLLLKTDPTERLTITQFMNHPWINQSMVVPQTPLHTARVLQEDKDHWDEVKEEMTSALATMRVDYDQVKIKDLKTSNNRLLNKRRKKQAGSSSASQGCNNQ
In assay [6] the target is Receptor-type tyrosine-protein kinase FLT3 (Homo sapiens) (UniProt P36888). In words: Inhibition of human FLT3 catalytic domain expressed in baculovirus assessed as substrate phosphorylation using fluorescence-labelled peptides as substrate at 95 uM after 90 mins by microfluidic peptide phosphorylation assay.
In assay [7] the target is Tyrosine-protein kinase ABL1 (Homo sapiens) (UniProt P00519). In words: Inhibition of human full-length ABL expressed in baculovirus assessed as substrate phosphorylation using fluorescence-labelled peptides as substrate at 95 uM after 90 mins by microfluidic peptide phosphorylation assay.
Assay [8] concerns the target Serine/threonine-protein kinase PAK 2 (Homo sapiens) (UniProt Q13177). In words: Inhibition of human truncated PAK2 expressed in Escherichia coli cell assessed as substrate phosphorylation using fluorescence-labelled peptides as substrate at 95 uM after 90 mins by microfluidic peptide phosphorylation assay.
The subject of assay [9] is Tyrosine-protein kinase ABL1 (Homo sapiens), P00519 [T315I]. In words: Inhibition of human truncated ABL T315I mutant expressed in baculovirus assessed as substrate phosphorylation using fluorescence-labelled peptides as substrate at 95 uM after 90 mins by microfluidic peptide phosphorylation assay.
The target of assay [10] is Protein kinase C alpha type (Homo sapiens) (UniProt P17252). In words: Inhibition of human truncated PKC alpha expressed in baculovirus assessed as substrate phosphorylation using fluorescence-labelled peptides as substrate at 8 uM after 90 mins by microfluidic peptide phosphorylation assay.
Assay [11] addresses Serine/threonine-protein kinase MARK2 (Homo sapiens) (UniProt Q7KZI7). In words: Inhibition of human full length MARK2 expressed in baculovirus assessed as substrate phosphorylation using fluorescence-labelled peptides as substrate at 8 uM after 90 mins by microfluidic peptide phosphorylation assay.
Assay [12] addresses Tyrosine-protein kinase Fyn (Homo sapiens) (UniProt P06241). In words: Inhibition of human full length FYN expressed in baculovirus assessed as substrate phosphorylation using fluorescence-labelled peptides as substrate at 70 uM after 90 mins by microfluidic peptide phosphorylation assay.
In assay [13] the target is Rho-associated protein kinase 2 (Homo sapiens) (UniProt O75116). In words: Inhibition of human ROCK2 catalytic domain expressed in baculovirus assessed as substrate phosphorylation using fluorescence-labelled peptides as substrate at 420 uM after 90 mins by microfluidic peptide phosphorylation assay.
Chain of Rho-associated protein kinase 2 (Homo sapiens) (O75116 whole entry, looked up, the tested form may be a part): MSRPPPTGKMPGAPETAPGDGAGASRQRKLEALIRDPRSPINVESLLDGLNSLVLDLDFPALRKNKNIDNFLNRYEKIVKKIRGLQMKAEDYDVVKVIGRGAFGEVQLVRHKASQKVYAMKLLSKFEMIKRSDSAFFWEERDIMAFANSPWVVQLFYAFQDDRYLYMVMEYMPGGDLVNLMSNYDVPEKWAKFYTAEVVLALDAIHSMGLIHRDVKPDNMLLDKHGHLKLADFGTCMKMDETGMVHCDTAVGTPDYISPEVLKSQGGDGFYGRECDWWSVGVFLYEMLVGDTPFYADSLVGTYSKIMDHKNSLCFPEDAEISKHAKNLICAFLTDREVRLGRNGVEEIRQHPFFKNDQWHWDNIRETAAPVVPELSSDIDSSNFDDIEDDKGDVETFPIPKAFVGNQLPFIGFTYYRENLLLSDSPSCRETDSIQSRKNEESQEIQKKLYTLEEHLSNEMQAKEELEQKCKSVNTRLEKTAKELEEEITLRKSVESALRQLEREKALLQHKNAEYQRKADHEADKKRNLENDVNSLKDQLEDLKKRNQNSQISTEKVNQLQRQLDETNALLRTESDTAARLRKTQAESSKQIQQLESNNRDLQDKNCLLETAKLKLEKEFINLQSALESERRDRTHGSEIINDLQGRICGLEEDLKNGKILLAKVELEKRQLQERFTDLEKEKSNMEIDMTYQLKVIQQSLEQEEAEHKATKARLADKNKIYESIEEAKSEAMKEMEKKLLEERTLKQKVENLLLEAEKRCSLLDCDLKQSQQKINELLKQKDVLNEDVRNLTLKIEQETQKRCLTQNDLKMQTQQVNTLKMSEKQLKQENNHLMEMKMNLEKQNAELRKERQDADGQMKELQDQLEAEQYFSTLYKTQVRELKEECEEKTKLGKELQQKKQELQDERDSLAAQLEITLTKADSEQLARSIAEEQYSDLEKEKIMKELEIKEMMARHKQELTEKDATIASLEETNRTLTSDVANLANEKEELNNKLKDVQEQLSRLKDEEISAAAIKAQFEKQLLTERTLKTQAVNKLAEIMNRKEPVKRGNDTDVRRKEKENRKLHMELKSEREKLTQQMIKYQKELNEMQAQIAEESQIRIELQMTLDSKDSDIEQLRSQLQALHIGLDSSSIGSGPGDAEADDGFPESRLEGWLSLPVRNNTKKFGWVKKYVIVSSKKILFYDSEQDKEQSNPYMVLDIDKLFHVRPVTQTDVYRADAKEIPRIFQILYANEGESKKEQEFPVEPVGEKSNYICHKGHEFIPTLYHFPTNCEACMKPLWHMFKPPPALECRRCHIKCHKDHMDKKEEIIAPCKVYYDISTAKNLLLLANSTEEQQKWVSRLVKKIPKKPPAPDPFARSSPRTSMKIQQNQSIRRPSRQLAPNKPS

Chain of Serine/threonine-protein kinase MARK2 (Homo sapiens) (Q7KZI7 whole entry): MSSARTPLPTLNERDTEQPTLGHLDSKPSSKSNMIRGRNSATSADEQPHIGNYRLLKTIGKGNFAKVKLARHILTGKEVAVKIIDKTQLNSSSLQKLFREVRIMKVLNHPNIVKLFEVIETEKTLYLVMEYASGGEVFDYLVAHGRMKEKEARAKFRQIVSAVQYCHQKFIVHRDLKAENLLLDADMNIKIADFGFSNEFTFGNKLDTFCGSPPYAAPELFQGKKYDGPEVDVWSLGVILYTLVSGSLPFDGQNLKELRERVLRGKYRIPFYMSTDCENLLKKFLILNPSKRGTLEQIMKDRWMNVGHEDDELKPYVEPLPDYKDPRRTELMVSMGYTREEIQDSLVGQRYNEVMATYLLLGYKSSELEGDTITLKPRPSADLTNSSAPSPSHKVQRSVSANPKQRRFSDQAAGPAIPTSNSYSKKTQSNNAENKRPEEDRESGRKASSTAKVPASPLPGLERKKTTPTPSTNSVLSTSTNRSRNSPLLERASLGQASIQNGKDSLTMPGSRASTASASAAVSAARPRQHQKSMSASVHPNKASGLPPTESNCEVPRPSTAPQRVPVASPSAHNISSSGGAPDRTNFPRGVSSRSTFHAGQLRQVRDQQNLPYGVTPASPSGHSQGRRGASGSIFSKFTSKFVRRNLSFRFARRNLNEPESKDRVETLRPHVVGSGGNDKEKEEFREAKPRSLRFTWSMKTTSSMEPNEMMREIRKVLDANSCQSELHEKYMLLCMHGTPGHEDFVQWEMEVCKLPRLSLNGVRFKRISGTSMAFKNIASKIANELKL
Chain of Protein kinase C eta type (Homo sapiens) (P24723 whole entry, the tested form may be a part): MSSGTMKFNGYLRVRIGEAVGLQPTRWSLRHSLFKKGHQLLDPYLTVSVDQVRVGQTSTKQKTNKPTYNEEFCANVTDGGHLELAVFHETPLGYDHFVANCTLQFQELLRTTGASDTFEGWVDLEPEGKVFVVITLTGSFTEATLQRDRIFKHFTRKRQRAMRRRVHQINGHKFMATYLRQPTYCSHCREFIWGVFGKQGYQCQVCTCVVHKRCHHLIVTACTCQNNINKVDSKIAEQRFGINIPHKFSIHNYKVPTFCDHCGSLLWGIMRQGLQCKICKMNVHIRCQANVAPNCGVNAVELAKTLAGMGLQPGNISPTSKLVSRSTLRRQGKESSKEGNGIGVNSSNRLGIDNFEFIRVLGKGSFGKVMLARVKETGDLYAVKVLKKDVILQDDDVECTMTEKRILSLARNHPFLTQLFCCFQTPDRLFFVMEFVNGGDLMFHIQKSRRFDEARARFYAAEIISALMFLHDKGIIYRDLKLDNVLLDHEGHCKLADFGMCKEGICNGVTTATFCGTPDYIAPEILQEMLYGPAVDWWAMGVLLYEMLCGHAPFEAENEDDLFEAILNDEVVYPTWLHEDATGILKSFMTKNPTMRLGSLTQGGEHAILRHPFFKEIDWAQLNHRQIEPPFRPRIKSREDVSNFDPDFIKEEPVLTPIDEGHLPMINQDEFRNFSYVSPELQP
Chain of Tyrosine-protein kinase Fyn (Homo sapiens) (P06241 2-537 limits assumed): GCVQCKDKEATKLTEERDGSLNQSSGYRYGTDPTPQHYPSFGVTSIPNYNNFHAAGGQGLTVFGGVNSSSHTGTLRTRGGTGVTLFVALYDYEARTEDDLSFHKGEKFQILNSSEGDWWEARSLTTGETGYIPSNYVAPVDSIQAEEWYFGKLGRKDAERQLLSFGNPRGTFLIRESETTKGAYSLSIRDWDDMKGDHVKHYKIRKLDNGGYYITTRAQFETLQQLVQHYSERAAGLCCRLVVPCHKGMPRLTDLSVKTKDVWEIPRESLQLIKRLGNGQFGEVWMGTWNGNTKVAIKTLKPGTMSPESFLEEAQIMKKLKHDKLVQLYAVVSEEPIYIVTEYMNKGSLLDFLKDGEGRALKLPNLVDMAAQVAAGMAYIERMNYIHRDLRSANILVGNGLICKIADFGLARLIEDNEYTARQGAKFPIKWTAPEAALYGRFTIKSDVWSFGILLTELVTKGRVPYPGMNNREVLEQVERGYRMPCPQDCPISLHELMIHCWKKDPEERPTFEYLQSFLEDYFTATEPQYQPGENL
Chain of Serine/threonine-protein kinase PAK 2 (Homo sapiens) (Q13177 whole entry, the tested form may be a part): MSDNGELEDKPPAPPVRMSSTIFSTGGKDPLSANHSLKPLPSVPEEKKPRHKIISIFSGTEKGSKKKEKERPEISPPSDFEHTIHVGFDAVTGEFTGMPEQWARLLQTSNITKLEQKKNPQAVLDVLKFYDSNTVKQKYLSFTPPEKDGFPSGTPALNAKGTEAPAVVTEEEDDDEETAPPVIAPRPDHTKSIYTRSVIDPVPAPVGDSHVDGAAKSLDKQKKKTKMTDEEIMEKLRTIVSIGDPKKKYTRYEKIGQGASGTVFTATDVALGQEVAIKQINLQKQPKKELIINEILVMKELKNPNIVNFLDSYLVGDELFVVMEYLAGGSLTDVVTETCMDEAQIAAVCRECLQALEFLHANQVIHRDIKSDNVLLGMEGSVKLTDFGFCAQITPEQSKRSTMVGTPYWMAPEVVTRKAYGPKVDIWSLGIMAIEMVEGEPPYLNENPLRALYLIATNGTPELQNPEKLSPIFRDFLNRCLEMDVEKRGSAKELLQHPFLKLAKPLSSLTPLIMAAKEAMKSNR

`NC1CCN(c2ncnc3[nH]ccc23)CC1`: the inhibition in [1] is 20.5%.

On to `NC1(Cc2ccc(Cl)cc2)CCN(c2ncnc3[nH]ccc23)CC1`, for which, in [2], the inhibition worked out at 51%. Take `NCC1CN(c2ncnc3[nH]c4cnccc4c23)CCO1` (stereo not drawn): the inhibition in [3] worked out at 16%; in assay [4], 4.5%. For `NCCc1ccc(-c2ncnc3[nH]cnc23)cc1`, the inhibition came to 24% in assay [5]; 49.5% in assay [6]; 78% in assay [7]; 57.5% in assay [8]; 53% in assay [9]. In the case of `NCC1CCN(c2ncnc3[nH]ccc23)CC1`, the values for the inhibition in assay [10] and in [11] were 56.5% and 37%, respectively. Regarding `CNCc1ccc(-c2ncnc3[nH]cnc23)cc1`, the inhibition in assay [12] is 31.5%. `c1nc(N2CCOCC2)c2nc[nH]c2n1`: the inhibition in assay [13] is 101%.

As a reminder, the inhibition is the change of the read-out against control, counted positive when it falls.

The values above are taken from ChEMBL document CHEMBL3132769, “Fragment growing to retain or alter the selectivity of anchored kinase hinge-binding fragments” (Medchemcomm, 2014).
